Laboratory results published in US20210045385A1, “PYRIDAZINONE-SUBSTITUTED KETOXIMES AS HERBICIDES” (FMC Corporation, priority 2018, published 2021).

Legend:
Assay type in all cases: in vivo
[1] = test system: Italian ryegrass (Lolium mutiflorum); assay: Test C preemergence, visual plant response rating; conditions: Test C, 0 is no effect, 100 is complete control
Procedure, shortened: (§1)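 Compounds in a non-phytotoxic solvent with surfactant were applied as a directed soil spray preemergence or to 2–10 cm, one- to two-leaf plants postemergence, in loam–sand soil. After about 10 d in a greenhouse, injury was visually rated against untreated controls on a 0–100 scale (100 = complete control).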

[2] = test system: barnyardgrass (Echinochloa crus-galli); assay: Test C preemergence, visual plant response rating; conditions: Test C, 0 is no effect, 100 is complete control
Procedure, shortened: as §1

[3] = test system: foxtail, giant (giant foxtail, Setaria faberi); assay: Test C preemergence, visual plant response rating; conditions: Test C, 0 is no effect, 100 is complete control
Procedure, shortened: as §1

[4] = test system: kochia (Bassia scoparia); assay: Test C preemergence, visual plant response rating; conditions: Test C, 0 is no effect, 100 is complete control
Procedure, shortened: as §1

[5] = test system: pigweed (Amaranthus retroflexus); assay: Test C preemergence, visual plant response rating; conditions: Test C, 0 is no effect, 100 is complete control
Procedure, shortened: as §1

[6] = test system: ragweed (common ragweed, Ambrosia artemisiifolia); assay: Test C preemergence, visual plant response rating; conditions: Test C, 0 is no effect, 100 is complete control
Procedure, shortened: as §1

[7] = test system: Italian ryegrass (Lolium mutiflorum); assay: Test C postemergence, visual plant response rating
Procedure, shortened: as §1

[8] = test system: barnyardgrass (Echinochloa crus-galli); assay: Test C postemergence, visual plant response rating
Procedure, shortened: as §1

[9] = test system: blackgrass (Alopecurus myosuroides); assay: Test C postemergence, visual plant response rating
Procedure, shortened: as §1

[10] = test system: corn (Zea mays); assay: Test C postemergence, visual plant response rating
Procedure, shortened: as §1

[11] = test system: foxtail, giant (giant foxtail, Setaria faberi); assay: Test C postemergence, visual plant response rating
Procedure, shortened: as §1

[12] = test system: galium (catchweed bedstraw, Galium aparine); assay: Test C postemergence, visual plant response rating
Procedure, shortened: as §1

[13] = test system: kochia (Bassia scoparia); assay: Test C postemergence, visual plant response rating
Procedure, shortened: as §1

[14] = test system: pigweed (Amaranthus retroflexus); assay: Test C postemergence, visual plant response rating
Procedure, shortened: as §1

[15] = test system: ragweed (common ragweed, Ambrosia artemisiifolia); assay: Test C postemergence, visual plant response rating
Procedure, shortened: as §1

[16] = test system: wheat (Triticum aestivum); assay: Test C postemergence, visual plant response rating
Procedure, shortened: as §1

[17] = test system: barnyardgrass (Echinochloa crus-galli); assay: Test D flooded paddy test, visual plant response rating; conditions: 250 g ai/ha, scale 0 to 100 (0 no effect, 100 complete control), 13 to 15 d
Procedure, shortened: (§2)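 Plants were grown to the 2-leaf stage, pots flooded to 3 cm above soil, and compound applied directly into the paddy water, with the depth held throughout. After 13 to 15 d in a greenhouse, response was rated visually against untreated controls on a 0–100 scale (0 no effect, 100 complete control).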

[18] = test system: duck salad (Heteranthera limosa); assay: as above; conditions: 250 g ai/ha, scale 0 to 100 (0 no effect, 100 complete control), 13 to 15 d
Procedure, shortened: as §2

[19] = test system: rice (Oryza sativa); assay: as above; conditions: 250 g ai/ha, scale 0 to 100 (0 no effect, 100 complete control), 13 to 15 d
Procedure, shortened: as §2

[20] = test system: sedge umbrella (small-flower umbrella sedge, Cyperus difformis); assay: as above; conditions: 250 g ai/ha, scale 0 to 100 (0 no effect, 100 complete control), 13 to 15 d
Procedure, shortened: as §2

[21] = Test C, postemergence, 125 g ai/ha

Row | Structure (SMILES) | Ryegrass, Italian plant response rating (0 to 100 scale) ([1]; 31 g ai/ha) | Ryegrass, Italian plant response rating (0 to 100 scale) ([1]; 125 g ai/ha) | Barnyardgrass plant response rating (0 to 100 scale) ([2]; 31 g ai/ha) | Barnyardgrass plant response rating (0 to 100 scale) ([2]; 125 g ai/ha) | Foxtail, Giant plant response rating (0 to 100 scale) ([3]; 31 g ai/ha) | Foxtail, Giant plant response rating (0 to 100 scale) ([3]; 125 g ai/ha) | Kochia plant response rating (0 to 100 scale) ([4]; 31 g ai/ha) | Kochia plant response rating (0 to 100 scale) ([4]; 125 g ai/ha) | Pigweed plant response rating (0 to 100 scale) ([5]; 31 g ai/ha) | Pigweed plant response rating (0 to 100 scale) ([5]; 125 g ai/ha) | Ragweed plant response rating (0 to 100 scale) ([6]; 31 g ai/ha) | Ragweed plant response rating (0 to 100 scale) ([6]; 125 g ai/ha) | Ryegrass, Italian plant response rating (0 to 100 scale) ([7]; Postemergence, 31 g ai/ha) | Ryegrass, Italian plant response rating (0 to 100 scale) [7, 21] | Barnyardgrass plant response rating (0 to 100 scale) ([8]; Postemergence, 31 g ai/ha) | Barnyardgrass plant response rating (0 to 100 scale) [8, 21] | Blackgrass plant response rating (0 to 100 scale) ([9]; Postemergence, 31 g ai/ha) | Blackgrass plant response rating (0 to 100 scale) [9, 21] | Corn plant response rating (0 to 100 scale) ([10]; Postemergence, 31 g ai/ha) | Corn plant response rating (0 to 100 scale) [10, 21] | other results
1 | C#CCO/N=C(/c1c(O)c(C)nn(C)c1=O)c1cccc2cc(Cl)ccc12 [Compound 242] | 10 | 90 | 60 | 90 | 80 | 100 | 30 | 50 | 100 | 100 | 80 | 90 | 40 | 90 | 80 | 90 | 80 | 90 | 0 | 20 | Foxtail, Giant plant response rating (0 to 100 scale) ([11]; Postemergence, 31 g ai/ha): 70; Foxtail, Giant plant response rating (0 to 100 scale) [11, 21]: 80; Galium plant response rating (0 to 100 scale) ([12]; Postemergence, 31 g ai/ha): 80; Galium plant response rating (0 to 100 scale) [12, 21]: 100; Kochia plant response rating (0 to 100 scale) ([13]; Postemergence, 31 g ai/ha): 40; Kochia plant response rating (0 to 100 scale) [13, 21]: 50; Pigweed plant response rating (0 to 100 scale) ([14]; Postemergence, 31 g ai/ha): 90; Pigweed plant response rating (0 to 100 scale) [14, 21]: 100; Ragweed plant response rating (0 to 100 scale) ([15]; Postemergence, 31 g ai/ha): 50; Ragweed plant response rating (0 to 100 scale) [15, 21]: 90; Wheat plant response rating (0 to 100 scale) ([16]; Postemergence, 31 g ai/ha): 0; Wheat plant response rating (0 to 100 scale) [16, 21]: 60; Plant response rating, Barnyardgrass (Flood) [17]: 95; Plant response rating, Ducksalad (Flood) [18]: 98; Plant response rating, Rice (Flood) [19]: 85; Plant response rating, Sedge, Umbrella (Flood) [20]: 100
2 | C=CCO/N=C(\c1c(O)c(C)nn(C)c1=O)c1cccc2cc(Cl)ccc12 [Compound 243] | 0 | 20 | 20 | 80 | 80 | 100 | 0 | 0 | 70 | 100 | 30 | 80 | 10 | 40 | 70 | 80 | 30 | 50 | 0 | 30 | Foxtail, Giant plant response rating (0 to 100 scale) ([11]; Postemergence, 31 g ai/ha): 70; Foxtail, Giant plant response rating (0 to 100 scale) [11, 21]: 80; Galium plant response rating (0 to 100 scale) ([12]; Postemergence, 31 g ai/ha): 80; Galium plant response rating (0 to 100 scale) [12, 21]: 90; Kochia plant response rating (0 to 100 scale) ([13]; Postemergence, 31 g ai/ha): 20; Kochia plant response rating (0 to 100 scale) [13, 21]: 20; Pigweed plant response rating (0 to 100 scale) ([14]; Postemergence, 31 g ai/ha): 80; Pigweed plant response rating (0 to 100 scale) [14, 21]: 90; Ragweed plant response rating (0 to 100 scale) ([15]; Postemergence, 31 g ai/ha): 60; Ragweed plant response rating (0 to 100 scale) [15, 21]: 90; Wheat plant response rating (0 to 100 scale) ([16]; Postemergence, 31 g ai/ha): 0; Wheat plant response rating (0 to 100 scale) [16, 21]: 0; Plant response rating, Barnyardgrass (Flood) [17]: 40; Plant response rating, Ducksalad (Flood) [18]: 80; Plant response rating, Rice (Flood) [19]: 45; Plant response rating, Sedge, Umbrella (Flood) [20]: 100
3 | CCO/N=C(/c1c(O)c(C)nn(C)c1=O)c1cccc2cc(Cl)ccc12 [Compound 244] | 0 | 20 | 40 | 70 | 90 | 100 | 0 | 0 | 50 | 90 | 10 | 20 | 0 | 10 | 30 | 50 | 40 | 70 | 10 | 30 | Foxtail, Giant plant response rating (0 to 100 scale) ([11]; Postemergence, 31 g ai/ha): 80; Foxtail, Giant plant response rating (0 to 100 scale) [11, 21]: 80; Galium plant response rating (0 to 100 scale) ([12]; Postemergence, 31 g ai/ha): 80; Galium plant response rating (0 to 100 scale) [12, 21]: 90; Kochia plant response rating (0 to 100 scale) ([13]; Postemergence, 31 g ai/ha): 20; Kochia plant response rating (0 to 100 scale) [13, 21]: 20; Pigweed plant response rating (0 to 100 scale) ([14]; Postemergence, 31 g ai/ha): 80; Pigweed plant response rating (0 to 100 scale) [14, 21]: 90; Ragweed plant response rating (0 to 100 scale) ([15]; Postemergence, 31 g ai/ha): 90; Ragweed plant response rating (0 to 100 scale) [15, 21]: 40; Wheat plant response rating (0 to 100 scale) ([16]; Postemergence, 31 g ai/ha): 0; Wheat plant response rating (0 to 100 scale) [16, 21]: 0; Plant response rating, Barnyardgrass (Flood) [17]: 10; Plant response rating, Ducksalad (Flood) [18]: 50; Plant response rating, Rice (Flood) [19]: 15; Plant response rating, Sedge, Umbrella (Flood) [20]: 45
4 | Cc1nn(C)c(=O)c(/C(=N/OC(C)C)c2cccc3cc(Cl)ccc23)c1O [Compound 245] | 0 | 0 | 30 | 70 | 60 | 90 | 0 | 0 | 50 | 100 | 10 | 40 | 0 | 0 | 30 | 50 | 0 | 0 | 30 | 30 | Foxtail, Giant plant response rating (0 to 100 scale) ([11]; Postemergence, 31 g ai/ha): 30; Foxtail, Giant plant response rating (0 to 100 scale) [11, 21]: 80; Galium plant response rating (0 to 100 scale) ([12]; Postemergence, 31 g ai/ha): 70; Galium plant response rating (0 to 100 scale) [12, 21]: 90; Kochia plant response rating (0 to 100 scale) ([13]; Postemergence, 31 g ai/ha): 0; Kochia plant response rating (0 to 100 scale) [13, 21]: 20; Pigweed plant response rating (0 to 100 scale) ([14]; Postemergence, 31 g ai/ha): 70; Pigweed plant response rating (0 to 100 scale) [14, 21]: 90; Ragweed plant response rating (0 to 100 scale) ([15]; Postemergence, 31 g ai/ha): 20; Ragweed plant response rating (0 to 100 scale) [15, 21]: 70; Wheat plant response rating (0 to 100 scale) ([16]; Postemergence, 31 g ai/ha): 0; Wheat plant response rating (0 to 100 scale) [16, 21]: 0; Plant response rating, Barnyardgrass (Flood) [17]: 15; Plant response rating, Ducksalad (Flood) [18]: 30; Plant response rating, Rice (Flood) [19]: 25; Plant response rating, Sedge, Umbrella (Flood) [20]: 50
